# According to patent US9832996B2, “Use of sarmentine and its analogues with an herbicide, and compositions thereof” (Marrone Bio Innovations, Inc., priority 2013, dated 2017):
# How the values were obtained:
# Type in all cases: in vivo
# Settings in all cases: 14 days after application
# Agrostis stolonifera [1] = assay: Post-emergent spray of sarmentine and paclobutrazol on grass seedlings, fresh weight and Colby synergy
# Experimental: (§1) Post-emergent effects of sarmentine and paclobutrazol were evaluated on annual bluegrass (Poa annua), Kentucky bluegrass (Poa pratensis), and Creeping Bentgrass (Agrostis stolonifera). For each of the three species tested, fifteen seedlings at the 1-2 leaf stage, in 2.5 cm square pots containing plant growth mix, were sprayed with two suboptimal doses of sarmentine, two suboptimal doses of paclobutrazol, or a factorial combination thereof, as shown in Tables 1-3. A volume of 40 gal/Acre was applied, using a cabinet track sprayer. Negative controls were sprayed with water. Pots were randomly placed in a growth room at 25° C. and 50% relative humidity, and watered as necessary. Treatments were arranged in a 2 k factorial design with three repeat measures and evaluated for fresh weight at 14 days after application. Potential synergy was evaluated by calculating the ratio of observed (E) to expected (Ee) percent of control weight, according to Colby's formula. Colby (1967) Weeds 15:20-22. Percent control was calculated in relation to the untreated control (0% control) with 100% control denoting no living green tissue remaining at 14 days after treatment. An E/Ee score above 1.0 indicates a synergistic interaction between two substances.
# Poa annua [2] = assay: as above
# Experimental: as §1
# Poa pratensis [3] = assay: as above
# Experimental: as §1
# Agrostis stolonifera [4] = assay: Post-emergent spray of sarmentine and amicarbazone on grass seedlings, fresh weight and Colby synergy
# Experimental: as §1, with “and amicarbazone” for “and paclobutrazol”, “pratensis), Perennial ryegrass (Lolium perenne), Tall fescue (Festuca arundinacea)” for “pratensis),”, “the five” for “the three”, “of amicarbazone,” for “of paclobutrazol,”, “Tables 4-8.” for “Tables 1-3.”
# Festuca arundinacea = assay: as above
# Experimental: as §1, with “and amicarbazone” for “and paclobutrazol”, “pratensis), Perennial ryegrass (Lolium perenne), Tall fescue (Festuca arundinacea)” for “pratensis),”, “the five” for “the three”, “of amicarbazone,” for “of paclobutrazol,”, “Tables 4-8.” for “Tables 1-3.”
# Lolium perenne = assay: as above
# Experimental: as §1, with “and amicarbazone” for “and paclobutrazol”, “pratensis), Perennial ryegrass (Lolium perenne), Tall fescue (Festuca arundinacea)” for “pratensis),”, “the five” for “the three”, “of amicarbazone,” for “of paclobutrazol,”, “Tables 4-8.” for “Tables 1-3.”
# Poa annua [5] = assay: as above
# Experimental: as §1, with “and amicarbazone” for “and paclobutrazol”, “pratensis), Perennial ryegrass (Lolium perenne), Tall fescue (Festuca arundinacea)” for “pratensis),”, “the five” for “the three”, “of amicarbazone,” for “of paclobutrazol,”, “Tables 4-8.” for “Tables 1-3.”
# Poa pratensis [6] = assay: as above
# Experimental: as §1, with “and amicarbazone” for “and paclobutrazol”, “pratensis), Perennial ryegrass (Lolium perenne), Tall fescue (Festuca arundinacea)” for “pratensis),”, “the five” for “the three”, “of amicarbazone,” for “of paclobutrazol,”, “Tables 4-8.” for “Tables 1-3.”
# [7] = paclobutrazol 0.042 mg/ml alone
# [8] = paclobutrazol 0.481 mg/ml alone
# [9] = paclobutrazol 0.0467 mg/ml alone
# [10] = paclobutrazol 0.293 mg/ml alone
compound,measurement,setting,value
"CCCCC/C=C/C=C/C(=O)N1CCCC1 [Sarmentine, N-(2E,4E-Decadienoyl) pyrrolidine]",% Control,Agrostis stolonifera [1]; sarmentine 17.43 mg/ml alone,6.4%
same,AVG Fresh Weight,Agrostis stolonifera [1]; sarmentine 17.43 mg/ml alone,0.63 g
same,% Control,Agrostis stolonifera [1]; sarmentine 24.72 mg/ml alone,20.6%
same,AVG Fresh Weight,Agrostis stolonifera [1]; sarmentine 24.72 mg/ml alone,0.53 g
same,% Control,Poa annua [2]; sarmentine 12.47 mg/ml alone,0.0%
same,AVG Fresh Weight,Poa annua [2]; sarmentine 12.47 mg/ml alone,0.71 g
same,% Control,Poa annua [2]; sarmentine 17.114 mg/ml alone,10.0%
same,AVG Fresh Weight,Poa annua [2]; sarmentine 17.114 mg/ml alone,0.54 g
same,% Control,Poa pratensis [3]; sarmentine 19.15 mg/ml alone,11.3%
same,AVG Fresh Weight,Poa pratensis [3]; sarmentine 19.15 mg/ml alone,0.6 g
same,% Control,Poa pratensis [3]; sarmentine 23.553 mg/ml alone,7.5%
same,AVG Fresh Weight,Poa pratensis [3]; sarmentine 23.553 mg/ml alone,0.7 g
same,% Control,Agrostis stolonifera [4]; sarmentine 17.43 mg/ml alone,0.0%
same,AVG Fresh Weight,Agrostis stolonifera [4]; sarmentine 17.43 mg/ml alone,0.59 g
same,% Control,Agrostis stolonifera [4]; sarmentine 24.72 mg/ml alone,30.8%
same,AVG Fresh Weight,Agrostis stolonifera [4]; sarmentine 24.72 mg/ml alone,0.48 g
same,% Control,Festuca arundinacea; sarmentine 10.27 mg/ml alone,28.4%
same,AVG Fresh Weight,Festuca arundinacea; sarmentine 10.27 mg/ml alone,1.8 g
same,% Control,Festuca arundinacea; sarmentine 33.98 mg/ml alone,40.4%
same,AVG Fresh Weight,Festuca arundinacea; sarmentine 33.98 mg/ml alone,1.5 g
same,% Control,Lolium perenne; sarmentine 10 mg/ml alone,17.7%
same,AVG Fresh Weight,Lolium perenne; sarmentine 10 mg/ml alone,1.14 g
same,% Control,Lolium perenne; sarmentine 20 mg/ml alone,10.6%
same,AVG Fresh Weight,Lolium perenne; sarmentine 20 mg/ml alone,1.24 g
same,% Control,Poa annua [5]; sarmentine 12.47 mg/ml alone,10.3%
same,Avg Fresh Weight,Poa annua [5]; sarmentine 12.47 mg/ml alone,0.85 g
same,% Control,Poa annua [5]; sarmentine 17.11 mg/ml alone,23.0%
same,Avg Fresh Weight,Poa annua [5]; sarmentine 17.11 mg/ml alone,0.73 g
same,% Control,Poa pratensis [6]; sarmentine 19.15 mg/ml alone,9.6%
same,AVG Fresh Weight,Poa pratensis [6]; sarmentine 19.15 mg/ml alone,0.72 g
same,% Control,Poa pratensis [6]; sarmentine 23.553 mg/ml alone,9.9%
same,AVG Fresh Weight,Poa pratensis [6]; sarmentine 23.553 mg/ml alone,0.72 g
CC(C)(C)[C@@H](O)[C@@H](Cc1ccc(Cl)cc1)n1cncn1 (racemic) [Paclobutrazol],% Control,Agrostis stolonifera [1]; [7],0.0%
same,AVG Fresh Weight,Agrostis stolonifera [1]; [7],0.76 g
same,% Control,Agrostis stolonifera [1]; [8],2.3%
same,AVG Fresh Weight,Agrostis stolonifera [1]; [8],0.65 g
same,% Control,Poa annua [2]; paclobutrazol 0.84 mg/ml alone,20.8%
same,AVG Fresh Weight,Poa annua [2]; paclobutrazol 0.84 mg/ml alone,0.48 g
same,% Control,Poa annua [2]; paclobutrazol 1.37 mg/ml alone,7.9%
same,AVG Fresh Weight,Poa annua [2]; paclobutrazol 1.37 mg/ml alone,0.55 g
same,% Control,Poa pratensis [3]; [9],14.2%
same,AVG Fresh Weight,Poa pratensis [3]; [9],0.6 g
same,% Control,Poa pratensis [3]; [10],0.0%
same,AVG Fresh Weight,Poa pratensis [3]; [10],0.7 g
CC(C)c1nn(C(=O)NC(C)(C)C)c(=O)n1N [Amicarbazone],% Control,Agrostis stolonifera [4]; amicarbazone 0.251 mg/ml alone,19.6%
same,AVG Fresh Weight,Agrostis stolonifera [4]; amicarbazone 0.251 mg/ml alone,0.56 g
same,% Control,Agrostis stolonifera [4]; amicarbazone 0.481 mg/ml alone,29.7%
same,AVG Fresh Weight,Agrostis stolonifera [4]; amicarbazone 0.481 mg/ml alone,0.49 g
same,% Control,Festuca arundinacea; amicarbazone 0.315 mg/ml alone,8.1%
same,AVG Fresh Weight,Festuca arundinacea; amicarbazone 0.315 mg/ml alone,2.3 g
same,% Control,Festuca arundinacea; amicarbazone 1.228 mg/ml alone,10.2%
same,AVG Fresh Weight,Festuca arundinacea; amicarbazone 1.228 mg/ml alone,2.2 g
same,% Control,Lolium perenne; amicarbazone 1.03 mg/ml alone,30.9%
same,AVG Fresh Weight,Lolium perenne; amicarbazone 1.03 mg/ml alone,0.96 g
same,% Control,Lolium perenne; amicarbazone 1.903 mg/ml alone,35.7%
same,AVG Fresh Weight,Lolium perenne; amicarbazone 1.903 mg/ml alone,0.89 g
same,% Control,Poa annua [5]; amicarbazone 1.53 mg/ml alone,39.4%
same,Avg Fresh Weight,Poa annua [5]; amicarbazone 1.53 mg/ml alone,0.57 g
same,% Control,Poa annua [5]; amicarbazone 2.79 mg/ml alone,46.0%
same,Avg Fresh Weight,Poa annua [5]; amicarbazone 2.79 mg/ml alone,0.51 g
same,% Control,Poa pratensis [6]; amicarbazone 0.31 mg/ml alone,0.0%
same,AVG Fresh Weight,Poa pratensis [6]; amicarbazone 0.31 mg/ml alone,0.84 g
same,% Control,Poa pratensis [6]; amicarbazone 0.544 mg/ml alone,29.1%
same,AVG Fresh Weight,Poa pratensis [6]; amicarbazone 0.544 mg/ml alone,0.56 g
